A short description of data set [1]: Intrinsic clearance in human liver microsomes preincubated for 5 mins followed by NADPH addition and measured for 45 mins by LC-MS analysis. In kind it is ADME, Microsome. As to conditions: time 50 min, read-out: CLH. On the technique in general: Microsomes from liver hold many membrane-bound enzymes, among them those of drug oxidation.
A short description of data set [2]: Cytotoxicity against human HEK293T cells assessed as reduction in cell viability incubated for 48 hrs by CCK-8 assay. In kind it is toxicity, cell-based, HEK-293T.
Data set [3] has as its target T1, von Hippel-Lindau disease tumor suppressor/Polymerase acidic protein (Influenza A virus (A/Puerto Rico/8/1934(H1N1))) (UniProt P03433+P40337). The data set is described as follows: PROTAC activity at Influenza A virus A/WSN/33(H1N1) flag tagged Polymerase acidic protein/VHL (unknown origin) expressed in HEK293T cells assessed as degradation of PA expression at 10 uM incubated for 8 hrs by Western blotting analysis. In kind it is cell-based. For orientation: In western blotting, separated proteins are transferred to a membrane and probed.

The target in data set [4] is T2, von Hippel-Lindau disease tumor suppressor/Polymerase basic protein 2 (Influenza A virus (strain A/Puerto Rico/8/1934 H1N1)) (UniProt P40337+P03428). The data set is described as follows: PROTAC activity at Influenza A virus A/WSN/33(H1N1) flag tagged Polymerase basic protein 2/VHL (unknown origin) expressed in HEK293T cells assessed as degradation of PB2 expression at 1 ug/ml incubated for 24 hrs by Western blotting analysis. In kind it is cell-based. As to conditions: dose 1.0 µg/ml.

A short description of data set [5]: Binding affinity to Influenza A virus A/WSN/33(H1N1) flag tagged Polymerase acidic protein assessed as dissociation constant incubated for 48 hrs by microscale thermophoresis assay. The conditions noted are these: hek293t. In general terms: In MST a laser heats a spot of the sample, and binding alters the fluorescence response.
Data set [6] concerns Enterovirus. The data set is described as follows: Antiviral activity against Enterovirus CV-B1 infected in RD cells assessed as inhibition of viral replication incubated for 24 hrs by CCK-8 assay. In kind it is functional, organism-based.
Data set [7] addresses T2, von Hippel-Lindau disease tumor suppressor/Polymerase basic protein 2 (Influenza A virus (strain A/Puerto Rico/8/1934 H1N1)). Briefly: PROTAC activity at Influenza A virus A/WSN/33(H1N1) flag tagged Polymerase basic protein 2/VHL (unknown origin) expressed in HEK293T cells assessed as degradation of PB2 expression at 10 ug/ml incubated for 24 hrs by Western blotting analysis. In kind it is cell-based. As to conditions: dose 10.0 µg/ml.

Data set [8] shares this target. The data set is described as follows: PROTAC activity at Influenza A virus A/WSN/33(H1N1) flag tagged Polymerase basic protein 2/VHL (unknown origin) expressed in HEK293T cells assessed as degradation of PB2 expression at 0.1 to 10 uM incubated for 24 hrs by Western blotting analysis. In kind it is cell-based. The conditions noted are these: dose 0.1-10 µM.
The target in data set [9] is T3, von Hippel-Lindau disease tumor suppressor/Polymerase basic protein 1 (Influenza A virus (strain A/Puerto Rico/8/1934 H1N1)) (UniProt P03431+P40337). Briefly: PROTAC activity at Influenza A virus A/WSN/33(H1N1) flag tagged Polymerase basic protein 1/VHL (unknown origin) expressed in HEK293T cells assessed as degradation of PB1 expression at 0.1 to 10 uM incubated for 24 hrs by Western blotting analysis. In kind it is cell-based. As to conditions: dose 0.1-10 µM.

Data set [10] is described as follows: Hepatic clearance in mouse liver microsomes preincubated for 5 mins followed by NADPH addition and measured for 45 mins by LC-MS analysis. In kind it is ADME, Microsome. The conditions noted are these: time 50 min.
Data set [11] has as its system Enterovirus. The data set is described as follows: Antiviral activity against Enterovirus CV-A16 infected in RD cells assessed as inhibition of viral replication incubated for 24 hrs by CCK-8 assay. In kind it is functional, organism-based.
In data set [12] the target is T1, von Hippel-Lindau disease tumor suppressor/Polymerase acidic protein (Influenza A virus (A/Puerto Rico/8/1934(H1N1))). The data set is described as follows: PROTAC activity at Influenza A virus A/WSN/33(H1N1) flag tagged Polymerase acidic protein/VHL (unknown origin) expressed in HEK293T cells assessed as degradation of PA expression at 0.02 to 10 uM incubated for 24 hrs by Western blotting analysis. In kind it is cell-based. The conditions noted are these: dose 0.02-10 µM.

The test system of data set [13] is Influenza A virus. The data set is described as follows: Anti-influenza activity against Influenza A virus H3N2 infected in HEK293T cells assessed as reduction in virus-induced cytopathic effect incubated for 48 hrs by CCK-8 assay. In kind it is functional, organism-based. The conditions noted are these: H3N2, HEK-293T.
For data set [14], the system named is Influenza A virus. The data set is described as follows: Anti-influenza activity against Influenza A virus A/PR/8/34 (H1N1) infected in MDCK cells assessed as inhibition of viral growth at 0.8 nM incubated for 48 hrs by luciferase assay relative to control. In kind it is functional.
For data set [15], the target named is T1, von Hippel-Lindau disease tumor suppressor/Polymerase acidic protein (Influenza A virus (A/Puerto Rico/8/1934(H1N1))). The data set is described as follows: PROTAC activity at Influenza A virus A/WSN/33(H1N1) flag tagged Polymerase acidic protein/VHL (unknown origin) expressed in HEK293T cells assessed as degradation of PA expression incubated for 2 to 10 hrs in presence of CHX by Western blotting analysis. The conditions noted are these: time 2-10 hrs. In kind it is cell-based.

Data set [16] in a line: Intrinsic clearance in mouse liver microsomes preincubated for 5 mins followed by NADPH addition and measured for 45 mins by LC-MS analysis. In kind it is ADME, Microsome. The conditions noted are these: time 50 min, read-out: CLH.
For data set [17], the target named is T3, von Hippel-Lindau disease tumor suppressor/Polymerase basic protein 1 (Influenza A virus (strain A/Puerto Rico/8/1934 H1N1)). Briefly: PROTAC activity at Influenza A virus A/WSN/33(H1N1) flag tagged Polymerase basic protein 1/VHL (unknown origin) expressed in HEK293T cells assessed as degradation of PB1 expression at 1 ug/ml incubated for 24 hrs by Western blotting analysis. In kind it is cell-based. As to conditions: dose 1.0 µg/ml.

For data set [18], the target named is T1, von Hippel-Lindau disease tumor suppressor/Polymerase acidic protein (Influenza A virus (A/Puerto Rico/8/1934(H1N1))). The data set is described as follows: PROTAC activity at Influenza A virus A/WSN/33(H1N1) flag tagged Polymerase acidic protein/VHL (unknown origin) expressed in HEK293T cells assessed as degradation of PA expression at 10 uM incubated for 24 hrs by Western blotting analysis. In kind it is cell-based.

The target is the same in data set [19]. Briefly: PROTAC activity at Influenza A virus A/WSN/33(H1N1) flag tagged Polymerase acidic protein/VHL (unknown origin) expressed in HEK293T cells assessed as degradation of PA expression at 5 uM incubated for 24 hrs in presence of dipeptide RA by Western blotting analysis. In kind it is cell-based.
Data set [20] is described as follows: Cytotoxicity against dog MDCK cells assessed as reduction in cell viability incubated for 48 hrs by CCK-8 assay. In kind it is toxicity, cell-based, Canis lupus familiaris.
In data set [21] the test system is Influenza A virus. Briefly: Anti-influenza activity against Influenza A virus A/WSN/33(H1N1) infected in MDCK cells assessed as downregulation of nucleoprotein expression incubated for 24 hrs by Western blotting analysis. In kind it is functional, organism-based.
For data set [22], the target named is T1, von Hippel-Lindau disease tumor suppressor/Polymerase acidic protein (Influenza A virus (A/Puerto Rico/8/1934(H1N1))). Briefly: PROTAC activity at Influenza A virus A/WSN/33(H1N1) flag tagged Polymerase acidic protein/VHL (unknown origin) expressed in HEK293T cells assessed as degradation of PA expression at 5 uM incubated for 24 hrs in presence of proteasome inhibitor MG-132 by Western blotting analysis. In kind it is cell-based.

Data set [23] in a line: Hepatic clearance in dog liver microsomes preincubated for 5 mins followed by NADPH addition and measured for 45 mins by LC-MS analysis. In kind it is ADME, Canis lupus familiaris, Microsome. The conditions noted are these: time 50 min.

Calls of active or inactive are those of the source. The calls are words filed in the database; no cut-off is given here.

Consider one compound from ChEMBL document CHEMBL5512674, “Novel Acyl Thiourea-Based Hydrophobic Tagging Degraders Exert Potent Anti-Influenza Activity through Two Distinct Endonuclease Polymerase Acidic-Targeted Degradation Pathways” (J Med Chem, 2024).

As for `CC(C)(C)OC(=O)NCCCC[C@H](NC(=O)OC(C)(C)C)C(=O)NCCCCCCCC(=O)Nc1ccc(NC(=S)NC(=O)c2ccc(C(C)(C)C)cc2)cc1`, the values for the CLint scaled in [1] and in [16] were 137 mL/min/kg and 170 mL/min/kg, respectively. Further, the values for the CC50 at 48 h in [2] and in [20] were more than 100 µM and more than 200 µM, respectively. In addition, the result (in data set [3]; with Enterovirus [6]; in the data set on Enterovirus [11]; in [12]; in [15]; in data set [18]) was Active. The outcome in data set [4], in data set [7], in [8], in data set [9], in [17] and in data set [19] was inactive. Besides, in data set [22], the outcome was inactive. The Kd (in general, the equilibrium constant for the complex coming apart) in data set [5] is 720 nM. Also, the CLhep predicted in data set [10] is 58.8 mL/min/kg; in [23] it was 26.3 mL/min/kg. Also, the EC50 (usually the concentration giving half of the maximal effect) in the data set on Influenza A virus [13] came out at 36 nM. The inhibition (as a rule, the share of the control response that was lost under treatment) at 0.0008 µM with Influenza A virus [14] was determined as 82%. Besides, in the data set with Influenza A virus [21], the Activity entry is “Dose-Dependent Effect”.
